# Test results from patent US6232314A, “Arylalkylpiperazine compounds as antioxidants” (Monash University, priority 1996, dated 2001).
# Tests used:
# [1] = target: NMDA receptor-ionophore complex (polyamine-sensitive ifenprodil binding site); experiment: NMDA assay: competitive binding against [125I]ifenprodil in rat cortical membranes; conditions: 30 min, 20° C., pH 7.7
# Experimental: The NMDA receptor-ionophore complex consists of a number of interacting domains, including one for polyamines where ifenprodil binds to exert its non-competitive antagonism.
# The purified material was stored in methanol at -20° C.
# Incubations were for 30 min. at 20° C., in triplicate, employing 12 concentrations of competing drugs. Non-specific binding was defined with 10 mM spermine. Assays were terminated by rapid filtration through GF/B filter paper and washing.
# [2] = test system: methamphetamine-induced loss of neostriatal tyrosine hydroxylase activity; conditions: mice; Sonsalla et al., 1991; cited from earlier work
# [3] = Gotti et al., 1988; cited from earlier work
# [4] = test system: polyamine sensitive binding site of the NMDA receptor complex; conditions: Carter et al., Reynolds et al., Robinson et al.; cited from earlier work
smiles,measurement,setting,value
CC(C(O)c1ccc(O)cc1)N1CCC(Cc2ccccc2)CC1 (stereo not shown) [ifenprodil],Ki,[1],19.5 ± 1.2 µM
same,protection from methamphetamine-induced loss of neostriatal tyrosine hydroxylase activity,[2],protect mice from the methamphetamine-induced loss of neostriatal tyrosine hydroxylase activity
same,neuroprotective properties / antiischaemic,[3],neuroprotective properties in models of neurodegeneration following ischaemia
same,interaction with the polyamine sensitive site of the NMDA receptor complex,[4],interacting with the polyamine sensitive binding site of the NMDA receptor
